Four compounds from patent publication US8883228B2, “Composition for heart disease, its active ingredients, method to prepare same and uses thereof” (Tasly Pharmaceutical Group Co. Ltd., priority 2003, dated 2014) can be followed below.

One data set concerns vegetative nerve balance. As to the kind of experiment: Adjustment of vegetative nerve, heart rate variation (HRV). Format: in vivo, human. Conditions: before and after treatment. The source says:
This test uses “Wenger-Chongzhongchongxion” vegetative nerve balance factor analysis to test the heart rate variation (HRV), that is, the fluctuation in the average heartbeat over a certain period of time or over a long time period in the R-R period. Data, including effects on the sympathetic and para-sympathetic nerves can be calculated, to reflect the regulatory function of the vegetative nervous system. […] A decrease in HRV means the sympathetic nerve is excited. It is directly proportional to the symptoms in coronary heart disease and the possibility of sudden death and irregularity of heartbeat. DSP can control over-excitement of the […] nerve and regulate the balance in the vegetative nerve.

Data set [1] concerns angina caused by coronary heart disease. The data set is described as follows: Senior group angina, comparative analysis of DSP and Nifedipine. Format: in vivo, human. Conditions: treatment of angina caused by coronary heart disease. The method, then: Both DSP and Nifedipine can treat angina caused by coronary heart disease, but the latter has side effects which are not suitable for long-term use. In order to choose suitable drugs for patients with a need for long-term treatment of coronary heart disease, a comparative analysis of DSP and Nifedipine in the treatment of angina caused by coronary heart disease was carried out. DSP is made for angina. It activates blood circulation and relieves pain efficiently. […] Nifedipine is a short-term-effective calcium antagonist with a short half-life and functional time, so angina may occur during medication. […] Many reports state that long-term treatment with Nifedipine is harmful to coronary arteries. DSP can prevent decreased blood flow to the cardiac muscles and the development of atherosclerosis.

In data set [2] the test system is chronic pulmonary heart disease. The data set is described as follows: Healing effect on chronic pulmonary heart disease. Format: in vivo, human. Conditions: treatment group versus control group. The source says: The total efficacy rate of treatment group is 95% and that of the control group 76%, the difference of which is statistically significant (P[…]0.05). […] There was a significant difference in the efficacy of the two groups (X^2=4.46 and 4.95, P[…]0.05). […] There were obvious changes in blood flow in the Treatment group before and after treatment compared with that of the Control group (P[…]0.05). The blood viscosity of the control group decreased after treatment, but there was no statistical deviation.

Data set [3] relates to Wistar rat's artificial heart. The data set is described as follows: Cardiac arrhythmia caused by exogenous free radicals, Langendorff perfusion. Conditions: 1 mg/L; ferrous sulfate/citrate free radicals alone up to 100%. The source says: Langendorff perfusion device was used to pour ferrous sulfate (0.25 mmol/L)/citrate (1.0 mmol/L) into the Wistar rat's artificial heart. The model of free radicals causing heart rhythm irregularity was replicated to observe the effects of DSP.

On to `O=[N+]([O-])O[C@H]1CO[C@H]2[C@@H]1OC[C@H]2O[N+](=O)[O-]` [Isordil], for which, in the data set with vegetative nerve balance, the “SDNN in R-R” value is “no significant difference” and the “percentage of y>+0.56 (vegetative nerve balance factor)” value was “not significant”.

`COC(=O)C1=C(C)NC(C)=C(C(=O)OC)C1c1ccccc1[N+](=O)[O-]` [Nifedipine]: the side effects entry in data set [1] is “many side effects”.

In the case of `OCCN(CCO)c1nc(N2CCCCC2)c2nc(N(CCO)CCO)nc(N3CCCCC3)c2n1` [persantin], the total efficacy rate in data set [2] was 76%.

`COc1ccc(CCN(C)CCCC(C#N)(c2ccc(OC)c(OC)c2)C(C)C)cc1OC` (centres unmarked) [verapamil]: the “irregularity percentage (cardiac arrhythmia)” value in data set [3] came out at 71.4%.
